Data as given in the NIST ThermoML archive (doi:10.1021/je100850z).
Values joined by “and” are separate entries in the source; they are usually repeats but may differ in a detail not shown here. Equal entries are not always repeated. ± gives the expanded uncertainty stated by the source.

Columns and labels:
[1] = Molar enthalpy of transition or fusion; conditions: Crystal; DSC
[2] = Crystal; for vapor or sublimation pressure: Calculated from knudsen effusion weight loss; for Normal melting temperature: DTA

O=c1c2ccccc2oc2ccccc12 [9H-xanthen-9-one]
Molar enthalpy of transition or fusion [1]: 6.36 ± 0.167 kcal/mol | vapor or sublimation pressure ([2]; 342.22 K): 0.00013 ± 2.1e-05 kPa and 0.000132 ± 2.1e-05 kPa and 0.000129 ± 2.1e-05 kPa | vapor or sublimation pressure ([2]; 344.15 K): 0.000163 ± 2.1e-05 kPa and 0.00016 ± 2.1e-05 kPa and 0.000157 ± 2.1e-05 kPa | vapor or sublimation pressure ([2]; 346.26 K): 0.000197 ± 2.1e-05 kPa and 0.000201 ± 2.1e-05 kPa and 0.000196 ± 2.1e-05 kPa | vapor or sublimation pressure ([2]; 348.26 K): 0.000238 ± 2.2e-05 kPa and 0.00024 ± 2.2e-05 kPa and 0.000245 ± 2.2e-05 kPa | vapor or sublimation pressure ([2]; 350.26 K): 0.000301 ± 2.3e-05 kPa and 0.000303 ± 2.3e-05 kPa and 0.000295 ± 2.3e-05 kPa | vapor or sublimation pressure ([2]; 354.2 K): 0.000451 ± 2.6e-05 kPa and 0.000452 ± 2.6e-05 kPa and 0.000434 ± 2.5e-05 kPa | vapor or sublimation pressure ([2]; 356.21 K): 0.000553 ± 2.8e-05 kPa and 0.000546 ± 2.8e-05 kPa and 0.000529 ± 2.7e-05 kPa | vapor or sublimation pressure ([2]; 358.26 K): 0.000674 ± 3.1e-05 kPa and 0.000667 ± 3.1e-05 kPa and 0.000658 ± 3.1e-05 kPa | vapor or sublimation pressure ([2]; 360.15 K): 0.000814 ± 3.5e-05 kPa and 0.000799 ± 3.5e-05 kPa and 0.000781 ± 3.4e-05 kPa | vapor or sublimation pressure ([2]; 362.22 K): 0.000989 ± 4e-05 kPa and 0.000954 ± 3.9e-05 kPa | Normal melting temperature [2]: 175.2 ± 0.9 °C

O=C1c2ccccc2C(=O)c2ccccc21 [9,10(9H,10H)-anthracenedione]
Molar enthalpy of transition or fusion [1]: 8.68 ± 0.222 kcal/mol | vapor or sublimation pressure ([2]; 377.06 K): 0.000173 ± 2.1e-05 kPa and 0.000164 ± 2.1e-05 kPa | vapor or sublimation pressure ([2]; 379.08 K): 0.00021 ± 2.1e-05 kPa and 0.0002 ± 2.1e-05 kPa | vapor or sublimation pressure ([2]; 381.26 K): 0.00025 ± 2.2e-05 kPa and 0.000246 ± 2.2e-05 kPa | vapor or sublimation pressure ([2]; 383.26 K): 0.000299 ± 2.3e-05 kPa and 0.000302 ± 2.3e-05 kPa | vapor or sublimation pressure ([2]; 385.26 K): 0.000359 ± 2.4e-05 kPa and 0.000352 ± 2.4e-05 kPa | vapor or sublimation pressure ([2]; 391.26 K): 0.000618 ± 3e-05 kPa | vapor or sublimation pressure ([2]; 393.08 K): 0.000743 ± 3.3e-05 kPa and 0.000716 ± 3.2e-05 kPa | vapor or sublimation pressure ([2]; 395.03 K): 0.000886 ± 3.7e-05 kPa | Normal melting temperature [2]: 283.6 ± 0.5 °C

O=C1c2ccccc2Cc2ccccc21 [9(10H)-anthracenone]
Molar enthalpy of transition or fusion [1]: 5.35 ± 0.143 kcal/mol | vapor or sublimation pressure ([2]; 346.15 K): 0.000131 ± 2.1e-05 kPa and 0.000128 ± 2.1e-05 kPa | vapor or sublimation pressure ([2]; 348.14 K): 0.000162 ± 2.1e-05 kPa and 0.000156 ± 2.1e-05 kPa | vapor or sublimation pressure ([2]; 351.13 K): 0.000223 ± 2.2e-05 kPa and 0.000217 ± 2.1e-05 kPa and 0.000221 ± 2.1e-05 kPa | vapor or sublimation pressure ([2]; 354.18 K): 0.000299 ± 2.3e-05 kPa and 0.00029 ± 2.2e-05 kPa and 0.000307 ± 2.3e-05 kPa | vapor or sublimation pressure ([2]; 355.68 K): 0.000359 ± 2.4e-05 kPa and 0.000354 ± 2.4e-05 kPa and 0.000348 ± 2.4e-05 kPa | vapor or sublimation pressure ([2]; 357.19 K): 0.00041 ± 2.5e-05 kPa and 0.000405 ± 2.5e-05 kPa and 0.000396 ± 2.4e-05 kPa | vapor or sublimation pressure ([2]; 360.15 K): 0.000558 ± 2.8e-05 kPa and 0.000553 ± 2.8e-05 kPa and 0.000533 ± 2.8e-05 kPa | vapor or sublimation pressure ([2]; 363.14 K): 0.000744 ± 3.3e-05 kPa and 0.000727 ± 3.3e-05 kPa and 0.0007 ± 3.2e-05 kPa | vapor or sublimation pressure ([2]; 365.14 K): 0.000895 ± 3.7e-05 kPa and 0.000879 ± 3.7e-05 kPa and 0.00084 ± 3.6e-05 kPa | Normal melting temperature [2]: 156.4 ± 0.5 °C

O=c1c2ccccc2sc2ccccc12 [thioxanthone]
Molar enthalpy of transition or fusion [1]: 6.79 ± 0.143 kcal/mol | vapor or sublimation pressure ([2]; 369.12 K): 0.000187 ± 2.1e-05 kPa and 0.000186 ± 2.1e-05 kPa and 0.000178 ± 2.1e-05 kPa | vapor or sublimation pressure ([2]; 371.2 K): 0.000232 ± 2.2e-05 kPa and 0.000226 ± 2.2e-05 kPa and 0.000222 ± 2.1e-05 kPa | vapor or sublimation pressure ([2]; 373.26 K): 0.000284 ± 2.2e-05 kPa and 0.000274 ± 2.2e-05 kPa and 0.00027 ± 2.2e-05 kPa | vapor or sublimation pressure ([2]; 375.12 K): 0.000335 ± 2.3e-05 kPa and 0.00032 ± 2.3e-05 kPa and 0.000321 ± 2.3e-05 kPa | vapor or sublimation pressure ([2]; 377.11 K): 0.000413 ± 2.5e-05 kPa and 0.000405 ± 2.5e-05 kPa and 0.000383 ± 2.4e-05 kPa | vapor or sublimation pressure ([2]; 379.2 K): 0.000496 ± 2.7e-05 kPa and 0.000495 ± 2.7e-05 kPa and 0.00048 ± 2.6e-05 kPa | vapor or sublimation pressure ([2]; 381.27 K): 0.000611 ± 2.9e-05 kPa and 0.000592 ± 2.9e-05 kPa and 0.000579 ± 2.9e-05 kPa | vapor or sublimation pressure ([2]; 383.12 K): 0.000711 ± 3.2e-05 kPa and 0.000701 ± 3.2e-05 kPa and 0.000664 ± 3.1e-05 kPa | vapor or sublimation pressure ([2]; 385.27 K): 0.000863 ± 3.7e-05 kPa and 0.00082 ± 3.5e-05 kPa and 0.00081 ± 3.5e-05 kPa | vapor or sublimation pressure ([2]; 387.2 K): 0.001018 ± 7.9e-05 kPa and 0.001001 ± 7.8e-05 kPa and 0.000962 ± 3.9e-05 kPa | Normal melting temperature [2]: 213.5 ± 0.9 °C

c1ccc2c(c1)Sc1ccccc1S2 [thianthrene]
vapor or sublimation pressure ([2]; 344.27 K): 0.000161 ± 2.1e-05 kPa and 0.000163 ± 2.1e-05 kPa | vapor or sublimation pressure ([2]; 346.12 K): 0.0002 ± 2.1e-05 kPa and 0.000198 ± 2.1e-05 kPa and 0.000197 ± 2.1e-05 kPa | vapor or sublimation pressure ([2]; 348.1 K): 0.000246 ± 2.2e-05 kPa and 0.000243 ± 2.2e-05 kPa and 0.000239 ± 2.2e-05 kPa | vapor or sublimation pressure ([2]; 350.26 K): 0.000301 ± 2.3e-05 kPa and 0.000299 ± 2.3e-05 kPa | vapor or sublimation pressure ([2]; 352.11 K): 0.00037 ± 2.4e-05 kPa and 0.000368 ± 2.4e-05 kPa and 0.000362 ± 2.4e-05 kPa | vapor or sublimation pressure ([2]; 354.1 K): 0.000447 ± 2.6e-05 kPa and 0.000446 ± 2.5e-05 kPa and 0.000439 ± 2.5e-05 kPa | vapor or sublimation pressure ([2]; 356.26 K): 0.000549 ± 2.8e-05 kPa and 0.00056 ± 2.8e-05 kPa and 0.000555 ± 2.8e-05 kPa | vapor or sublimation pressure ([2]; 358.1 K): 0.00068 ± 3.1e-05 kPa and 0.000687 ± 3.2e-05 kPa and 0.000669 ± 3.1e-05 kPa | vapor or sublimation pressure ([2]; 362.05 K): 0.000992 ± 4e-05 kPa and 0.000995 ± 4.1e-05 kPa and 0.000973 ± 4e-05 kPa | vapor or sublimation pressure ([2]; 364.06 K): 0.001197 ± 9.6e-05 kPa and 0.001196 ± 9.6e-05 kPa and 0.00117 ± 9.4e-05 kPa
